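These data come from cells grown in 96-well plates and exposed to compound for 48 hours at five concentrations. The concentration for 50% growth inhibition is given as GI50. TGI denotes the concentration required for complete inhibition of growth.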
What was measured:
Experiment in all cases: DTP human tumour cell line panel, 48 h
[1] = tested on: NCI-H23 lung
[2] = tested on: OVCAR-8 ovarian
[3] = tested on: SW-620 colon
[4] = tested on: MOLT-4 leukemia
[5] = tested on: IGROV1 ovarian
[6] = tested on: ACHN renal
[7] = tested on: SK-OV-3 ovarian
[8] = tested on: KM12 colon
[9] = tested on: HL-60(TB) leukemia
[10] = tested on: PC-3 prostate

Row | Structure (SMILES) | TGI [1] [µM] | TGI [2] [µM] | TGI [3] [µM] | TGI [4] [µM] | TGI [5] [µM] | TGI [6] [µM] | TGI [7] [µM] | TGI [8] [µM] | TGI [9] [µM] | TGI [10] [µM] | GI50 [1] [µM] | GI50 [2] [µM] | GI50 [3] [µM] | GI50 [4] [µM] | GI50 [5] [µM] | GI50 [6] [µM] | GI50 [10] [µM] | GI50 [7] [µM] | GI50 [8] [µM] | GI50 [9] [µM]
1 | C=C=C(CC)C(C(=O)OC)N(CC)CC (configuration not stated) | > 100 | > 100 | > 100 | > 100 | > 100 | > 100 | > 100 | > 100 | > 100 |  |  |  |  |  |  |  |  |  |  | 
2 | CC(=O)O[C@H]1CC[C@@]2(C)C(=CC[C@H]3C4=CC=C(C(C)=O)[C@@]4(C)CCC32)C1 (some centres not stated) |  | 66.3 | 52.7 | > 100 | > 100 | > 100 | > 100 | > 100 | > 100 |  |  |  |  |  |  |  |  |  |  | 
3 | COc1cccc(C(=O)N2CCc3ccccc32)c1OC | > 100 | > 100 | > 100 | 78.7 | > 100 | > 100 | > 100 | > 100 | 91.1 |  |  |  |  |  |  |  |  |  |  | 
4 | CCCCCCCC(=O)OC(CBr)COC(=O)C(C)(C)C (configuration not stated) | > 100 | > 100 | > 100 | 75.2 | > 100 | > 100 | > 100 | > 100 | > 100 |  |  |  |  |  |  |  |  |  |  | 
5 | C1CSCCCSCCSCCCSC1 | > 100 | > 100 | > 100 | > 100 | > 100 | > 100 | > 100 |  |  | > 100 |  |  |  |  |  |  |  |  |  | 
6 | Nc1nnc2cc(Cl)ccc2n1 | > 100 | > 100 | > 100 | > 100 | > 100 | > 100 | > 100 | > 100 |  | > 100 | > 100 | > 100 | > 100 | > 100 | 34.3 | > 100 | 24.4 | > 100 | > 100 | 
7 | CCC(=O)C(C)C1=Nc2nnc(CCCCCCCc3nnc4n3C(=O)C(C(C)C(=O)CC)=N4)n2C1=O (configuration not stated) | > 100 | > 100 | > 100 | > 100 | > 100 | > 100 | > 100 | > 100 | > 100 |  |  |  |  |  |  |  |  |  |  | 
8 | COC1OC(CO)C(O)C(O)C1Br (configuration not stated) | > 100 | > 100 | > 100 | > 100 | > 100 | > 100 |  | > 100 | > 100 |  |  |  |  |  |  |  |  |  |  | 
9 | O=C(c1ccc2ncc(-c3nc(NC4CC4)ncc3F)n2c1)N1CCOCC1 | 9.68 | > 100 | > 100 | 7.1 | 12.2 | 12.4 |  | 11.8 | 5.15 | 8.86 | 2.58 | 2.44 | 2.91 | 2.48 | 2.42 | 1.56 | 2.14 |  | 2.28 | 1.97
10 | O=c1cc2ccccc2nn1Cc1ccccc1Cl | > 100 | > 100 | > 100 |  | > 100 | > 100 | > 100 | > 100 |  |  |  |  |  |  |  |  |  |  |  | 
11 | CN(CN1C(=O)C2Cc3ccccc3CN2C1=O)c1ccccn1 (configuration not stated) | > 100 | > 100 | > 100 | > 100 | > 100 | > 100 |  | > 100 | > 100 |  |  |  |  |  |  |  |  |  |  | 
12 | O=C(O)/C(=C/c1c(O)ccc2ccccc12)c1csc(-c2nc(/C(=C\c3c(O)ccc4ccccc34)C(=O)O)cs2)n1 | 27.1 | 49.4 | 59 | 36.9 | 24.1 | 18.8 | 26.8 | 53.2 | 26.4 |  |  |  |  |  |  |  |  |  |  | 
13 | C1CCN(c2nsc(N3CCCCC3)n2)CC1 | > 100 | > 100 | > 100 | > 100 | > 100 | > 100 | > 100 | > 100 | > 100 |  |  |  |  |  |  |  |  |  |  | 
14 | COc1cc(/C=C2\CC3C4CC=C5C[C@@H](OC(C)=O)CC[C@]5(C)C4CC[C@]3(C)C2=O)ccc1OCCCn1ccnc1 (some centres not stated) | 17.7 | 21.6 | 23.3 | > 50 | 46.8 | 21 |  | 16.2 | 21.8 | 42.1 | 8.35 | 11 | 10.1 | 20.5 | 13.7 | 9.81 | 18 |  | 8.75 | 11.2
15 | CN1c2ccccc2N(C)C2C1N(C)c1ccccc1N2C (configuration not stated) | 74.7 | > 100 | > 100 | 9.69 | > 100 | > 100 |  | > 100 | 7 |  |  |  |  |  |  |  |  |  |  | 
16 | COc1cc2noc(-c3ccccc3)c2cc1OC |  | > 100 | > 100 | > 100 | > 100 | > 100 | > 100 | > 100 | > 100 |  |  |  |  |  |  |  |  |  |  | 
17 | CC(=O)OCCOCNC(=S)N/N=C(\C)c1cnc2ccccc2n1 | > 100 | > 100 | > 100 | > 100 | > 100 | > 100 | > 100 | > 100 | 80.8 |  |  |  |  |  |  |  |  |  |  | 
18 | Nc1ccc2c(c1)NCCN2 | > 100 | > 100 |  | 89.7 | > 100 | > 100 |  | > 100 | 89.4 | > 100 |  |  |  |  |  |  |  |  |  | 
19 | Cc1nc2c(n1C(C)(C)C)C(=O)c1ccccc1C2=O | > 100 | > 100 | > 100 | > 100 | > 100 | > 100 | > 100 | > 100 | > 100 |  |  |  |  |  |  |  |  |  |  | 
20 | C(CCC[Te][Te]CCCCCCOC1CCCCO1)CCOC1CCCCO1 (configuration not stated) | 31.1 | 33.9 | 45.2 | 46.6 | 48 | 22.7 | 80.7 | 28.9 | 37.9 |  |  |  |  |  |  |  |  |  |  | 
21 | O=C(Nc1nc2ccccc2n1Cc1ccccc1)NC12CC3CC(CC(C3)C1)C2 | > 100 | > 100 | > 100 | > 100 | > 100 | > 100 | > 100 | > 100 | > 100 |  |  |  |  |  |  |  |  |  |  | 
